These results are taken from ChEMBL document CHEMBL4052759, “Discovery of DS79182026: A potent orally active hepcidin production inhibitor” (Bioorg Med Chem Lett, 2017).

Data set [1] concerns the target Testis-specific serine/threonine-protein kinase 1 (Homo sapiens) (UniProt Q9BXA7). The data set is described as follows: Inhibition of TSSK1 (unknown origin) at 0.49 uM relative to control.
Data set [2] has as its target Protein kinase C delta type (Homo sapiens) (UniProt Q05655). The data set is described as follows: Inhibition of PKC-delta (unknown origin) at 0.49 uM relative to control.
The target of data set [3] is Inhibitor of nuclear factor kappa-B kinase subunit epsilon (Homo sapiens) (UniProt Q14164). Nature of the data set: Inhibition of IKBKE (unknown origin) at 0.49 uM relative to control.
The target in data set [4] is Dual specificity tyrosine-phosphorylation-regulated kinase 1A (Homo sapiens) (UniProt Q13627). Nature of the data set: Inhibition of DYRK1a (unknown origin) at 0.49 uM relative to control.
The target in data set [5] is Tyrosine-protein kinase Fyn (Homo sapiens) (UniProt P06241). The data set is described as follows: Inhibition of FYN (unknown origin) at 0.49 uM relative to control.
Data set [6] addresses Serine/threonine-protein kinase pim-3 (Homo sapiens) (UniProt Q86V86). The data set is described as follows: Inhibition of PIM3 (unknown origin) at 0.49 uM relative to control.
Data set [7] concerns the target Misshapen-like kinase 1 (Homo sapiens) (UniProt Q8N4C8). Nature of the data set: Inhibition of MINK (unknown origin) at 0.49 uM relative to control.
The target in data set [8] is Serine/threonine-protein kinase 4 (Homo sapiens) (UniProt Q13043). Nature of the data set: Inhibition of MST1 (unknown origin) at 0.49 uM relative to control.
The test system of data set [9] is Tyrosine-protein kinase ABL1 (Homo sapiens), P00519 [T315I]. Nature of the data set: Inhibition of Abl T315I mutant (unknown origin) at 0.49 uM relative to control.
In data set [10] the target is Tyrosine-protein kinase SYK (Homo sapiens) (UniProt P43405). Nature of the data set: Inhibition of SYK (unknown origin) at 0.49 uM relative to control.
Data set [11] deals with Leucine-rich repeat serine/threonine-protein kinase 2 (Homo sapiens), Q5S007 [G2019S]. Nature of the data set: Inhibition of LRRK2 G2019S mutant (unknown origin) at 0.49 uM relative to control.
Data set [12] concerns the target Protein kinase C theta type (Homo sapiens) (UniProt Q04759). Nature of the data set: Inhibition of PKC-theta (unknown origin) at 0.45 uM relative to control.
Data set [13] deals with T1, cGMP-dependent protein kinase 1 (Homo sapiens) (UniProt Q13976).
T1 sequence (whole entry): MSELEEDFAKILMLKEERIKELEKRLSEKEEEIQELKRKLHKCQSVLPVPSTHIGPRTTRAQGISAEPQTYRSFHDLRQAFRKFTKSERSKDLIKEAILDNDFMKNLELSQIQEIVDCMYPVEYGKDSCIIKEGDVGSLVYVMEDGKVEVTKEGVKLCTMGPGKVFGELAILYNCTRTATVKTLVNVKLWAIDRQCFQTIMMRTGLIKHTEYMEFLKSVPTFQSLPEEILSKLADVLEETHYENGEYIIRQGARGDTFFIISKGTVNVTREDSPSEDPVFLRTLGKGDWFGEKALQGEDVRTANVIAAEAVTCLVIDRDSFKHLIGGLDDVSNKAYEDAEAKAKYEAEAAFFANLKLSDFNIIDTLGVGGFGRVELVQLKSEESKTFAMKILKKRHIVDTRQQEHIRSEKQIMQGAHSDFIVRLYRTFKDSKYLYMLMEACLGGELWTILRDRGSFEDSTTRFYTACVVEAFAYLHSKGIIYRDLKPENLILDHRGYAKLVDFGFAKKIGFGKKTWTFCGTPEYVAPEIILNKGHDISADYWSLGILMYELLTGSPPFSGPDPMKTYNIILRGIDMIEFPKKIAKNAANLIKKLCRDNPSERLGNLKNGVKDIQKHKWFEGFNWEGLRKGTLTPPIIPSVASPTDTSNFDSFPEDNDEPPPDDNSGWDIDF
Nature of the data set: Inhibition of PKG1-beta (unknown origin) at 0.45 uM relative to control.

Data set [14] concerns the target Tyrosine-protein kinase Fer (Homo sapiens) (UniProt P16591). Nature of the data set: Inhibition of Fer (unknown origin) at 0.45 uM relative to control.
The target of data set [15] is cAMP-dependent protein kinase catalytic subunit PRKX (Homo sapiens) (UniProt P51817). The data set is described as follows: Inhibition of PRKX (unknown origin) at 0.45 uM relative to control.
In data set [16] the target is Calcium/calmodulin-dependent protein kinase type II subunit beta (Homo sapiens) (UniProt Q13554). The data set is described as follows: Inhibition of CAMK2 (unknown origin) at 0.45 uM relative to control.
The target in data set [17] is Dual specificity tyrosine-phosphorylation-regulated kinase 1B (Homo sapiens) (UniProt Q9Y463). Nature of the data set: Inhibition of DYRK1B (unknown origin) at 0.45 uM relative to control.
Data set [18] deals with Homeodomain-interacting protein kinase 1 (Homo sapiens) (UniProt Q86Z02). The data set is described as follows: Inhibition of HIPK1 (unknown origin) at 0.45 uM relative to control.
Data set [19] has as its target Serine/threonine-protein kinase PAK 4 (Homo sapiens) (UniProt O96013). Nature of the data set: Inhibition of PAK4 (unknown origin) at 0.45 uM relative to control.
Data set [20] concerns the target Tyrosine-protein kinase Fgr (Homo sapiens) (UniProt P09769). The data set is described as follows: Inhibition of FGR (unknown origin) at 0.45 uM relative to control.
In data set [21] the target is Vascular endothelial growth factor receptor 1 (Homo sapiens) (UniProt P17948). The data set is described as follows: Inhibition of FLT1 (unknown origin) at 0.45 uM relative to control.
The subject of data set [22] is Mast/stem cell growth factor receptor Kit (Homo sapiens), P10721 [T670I]. The data set is described as follows: Inhibition of KIT T670I mutant (unknown origin) at 0.45 uM relative to control.
Data set [23] deals with Leukocyte tyrosine kinase receptor (Homo sapiens) (UniProt P29376). Nature of the data set: Inhibition of LTK (unknown origin) at 0.45 uM relative to control.
For data set [24], the target named is Hepatocyte growth factor receptor (Homo sapiens) (UniProt P08581). The data set is described as follows: Inhibition of MET (unknown origin) at 0.45 uM relative to control.
Data set [25] deals with Serine/threonine-protein kinase DCLK2 (Homo sapiens) (UniProt Q8N568). The data set is described as follows: Inhibition of DCAMKL2 (unknown origin) at 0.45 uM relative to control.
Data set [26] concerns the target Serine/threonine-protein kinase D3 (Homo sapiens) (UniProt O94806). Nature of the data set: Inhibition of PKD3 (unknown origin) at 0.45 uM relative to control.
In data set [27] the test system is Tyrosine-protein kinase ABL1 (Homo sapiens), P00519 [Y253F]. The data set is described as follows: Inhibition of ABL1 Y253F mutant (unknown origin) at 0.45 uM relative to control.
For data set [28], the target named is Proto-oncogene tyrosine-protein kinase Src (Homo sapiens) (UniProt P12931). Nature of the data set: Inhibition of SRC (unknown origin) at 0.45 uM relative to control.
Data set [29] has as its target Tyrosine-protein kinase Tec (Homo sapiens) (UniProt P42680). The data set is described as follows: Inhibition of TEC (unknown origin) at 0.45 uM relative to control.
Data set [30] is described as follows: Volume of distribution in C57BL/6J mouse at 30 mg/kg, iv by LC-MS/MS analysis. The data set is classed as ADME, organism-based. The following applies: in vivo.
Data set [31] can be described thus: Oral bioavailability in C57BL/6J mouse at 30 mg/kg by LC-MS/MS analysis. As to conditions: in vivo. It is filed as ADME, organism-based.

Sequence of Serine/threonine-protein kinase D3 (Homo sapiens) (O94806 whole entry): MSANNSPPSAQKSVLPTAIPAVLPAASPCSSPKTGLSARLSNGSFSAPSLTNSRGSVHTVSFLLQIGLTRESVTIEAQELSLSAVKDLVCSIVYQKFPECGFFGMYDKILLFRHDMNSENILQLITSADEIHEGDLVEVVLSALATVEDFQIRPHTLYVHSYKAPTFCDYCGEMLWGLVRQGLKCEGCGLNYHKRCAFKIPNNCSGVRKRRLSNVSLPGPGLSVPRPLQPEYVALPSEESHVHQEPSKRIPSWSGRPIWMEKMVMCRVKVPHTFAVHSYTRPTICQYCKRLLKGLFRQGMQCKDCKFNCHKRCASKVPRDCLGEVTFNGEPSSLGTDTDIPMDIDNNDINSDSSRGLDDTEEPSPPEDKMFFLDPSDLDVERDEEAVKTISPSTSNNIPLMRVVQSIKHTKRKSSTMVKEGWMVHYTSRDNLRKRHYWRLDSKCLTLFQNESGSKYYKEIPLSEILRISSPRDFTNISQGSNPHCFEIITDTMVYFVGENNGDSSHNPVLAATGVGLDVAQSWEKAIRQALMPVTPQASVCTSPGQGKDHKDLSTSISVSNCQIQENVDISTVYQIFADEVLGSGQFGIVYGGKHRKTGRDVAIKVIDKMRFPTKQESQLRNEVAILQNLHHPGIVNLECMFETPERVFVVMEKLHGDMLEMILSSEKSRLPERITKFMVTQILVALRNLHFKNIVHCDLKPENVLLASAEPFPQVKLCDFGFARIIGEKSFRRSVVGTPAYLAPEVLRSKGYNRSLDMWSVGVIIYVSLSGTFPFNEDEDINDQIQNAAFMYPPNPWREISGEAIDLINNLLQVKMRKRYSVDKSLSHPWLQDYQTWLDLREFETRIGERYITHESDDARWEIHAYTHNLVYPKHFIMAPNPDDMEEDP
Sequence of Vascular endothelial growth factor receptor 1 (Homo sapiens) (P17948 whole entry): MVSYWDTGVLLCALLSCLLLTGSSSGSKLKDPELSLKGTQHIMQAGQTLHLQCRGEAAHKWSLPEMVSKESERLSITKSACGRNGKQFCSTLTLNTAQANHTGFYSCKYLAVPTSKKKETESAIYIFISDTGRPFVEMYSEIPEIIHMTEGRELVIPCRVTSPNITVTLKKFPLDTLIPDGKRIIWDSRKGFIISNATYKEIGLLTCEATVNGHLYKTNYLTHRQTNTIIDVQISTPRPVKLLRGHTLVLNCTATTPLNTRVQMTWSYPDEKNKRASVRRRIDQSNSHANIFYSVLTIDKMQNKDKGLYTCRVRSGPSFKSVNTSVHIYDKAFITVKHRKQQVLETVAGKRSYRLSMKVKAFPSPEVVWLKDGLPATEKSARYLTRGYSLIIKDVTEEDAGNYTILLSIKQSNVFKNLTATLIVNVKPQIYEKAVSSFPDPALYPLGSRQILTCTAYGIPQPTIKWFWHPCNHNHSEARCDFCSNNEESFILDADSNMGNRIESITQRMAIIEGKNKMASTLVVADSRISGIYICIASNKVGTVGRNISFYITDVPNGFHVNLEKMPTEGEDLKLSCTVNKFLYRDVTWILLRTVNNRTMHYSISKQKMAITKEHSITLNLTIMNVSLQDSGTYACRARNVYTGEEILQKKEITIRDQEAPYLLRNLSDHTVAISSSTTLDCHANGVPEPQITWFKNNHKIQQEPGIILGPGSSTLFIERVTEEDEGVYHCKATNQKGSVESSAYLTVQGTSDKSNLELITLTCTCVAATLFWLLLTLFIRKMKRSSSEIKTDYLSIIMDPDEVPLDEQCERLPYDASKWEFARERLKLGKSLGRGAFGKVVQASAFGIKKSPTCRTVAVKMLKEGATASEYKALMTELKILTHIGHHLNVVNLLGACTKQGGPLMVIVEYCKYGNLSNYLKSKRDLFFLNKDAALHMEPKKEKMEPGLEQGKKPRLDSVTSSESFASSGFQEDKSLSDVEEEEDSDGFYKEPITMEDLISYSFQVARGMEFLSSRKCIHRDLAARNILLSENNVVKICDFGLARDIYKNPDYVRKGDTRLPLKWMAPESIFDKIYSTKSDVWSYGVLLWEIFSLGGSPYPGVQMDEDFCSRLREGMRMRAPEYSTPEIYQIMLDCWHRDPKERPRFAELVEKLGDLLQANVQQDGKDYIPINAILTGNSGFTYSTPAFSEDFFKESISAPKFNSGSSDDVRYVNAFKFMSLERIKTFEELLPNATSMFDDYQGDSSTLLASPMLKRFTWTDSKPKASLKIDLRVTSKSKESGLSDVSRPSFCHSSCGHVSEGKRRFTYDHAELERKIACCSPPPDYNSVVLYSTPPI
Sequence of Serine/threonine-protein kinase PAK 4 (Homo sapiens) (O96013 whole entry, looked up): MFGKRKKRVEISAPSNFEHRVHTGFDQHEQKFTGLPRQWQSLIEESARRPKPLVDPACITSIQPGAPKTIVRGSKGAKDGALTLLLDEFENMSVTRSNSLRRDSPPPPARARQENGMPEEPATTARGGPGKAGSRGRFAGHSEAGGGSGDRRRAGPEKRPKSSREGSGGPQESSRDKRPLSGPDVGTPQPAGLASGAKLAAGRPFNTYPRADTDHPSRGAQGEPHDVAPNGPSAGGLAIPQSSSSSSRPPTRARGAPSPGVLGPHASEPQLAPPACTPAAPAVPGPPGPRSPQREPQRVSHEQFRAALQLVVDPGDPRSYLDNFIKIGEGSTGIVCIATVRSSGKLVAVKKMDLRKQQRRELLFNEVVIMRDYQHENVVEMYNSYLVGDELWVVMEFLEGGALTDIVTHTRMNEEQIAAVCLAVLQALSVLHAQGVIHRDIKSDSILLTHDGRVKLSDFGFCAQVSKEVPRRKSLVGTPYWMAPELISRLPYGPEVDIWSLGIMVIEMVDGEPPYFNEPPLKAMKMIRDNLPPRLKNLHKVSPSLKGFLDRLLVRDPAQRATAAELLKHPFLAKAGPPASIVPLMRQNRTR
Sequence of Homeodomain-interacting protein kinase 1 (Homo sapiens) (Q86Z02 whole entry, looked up): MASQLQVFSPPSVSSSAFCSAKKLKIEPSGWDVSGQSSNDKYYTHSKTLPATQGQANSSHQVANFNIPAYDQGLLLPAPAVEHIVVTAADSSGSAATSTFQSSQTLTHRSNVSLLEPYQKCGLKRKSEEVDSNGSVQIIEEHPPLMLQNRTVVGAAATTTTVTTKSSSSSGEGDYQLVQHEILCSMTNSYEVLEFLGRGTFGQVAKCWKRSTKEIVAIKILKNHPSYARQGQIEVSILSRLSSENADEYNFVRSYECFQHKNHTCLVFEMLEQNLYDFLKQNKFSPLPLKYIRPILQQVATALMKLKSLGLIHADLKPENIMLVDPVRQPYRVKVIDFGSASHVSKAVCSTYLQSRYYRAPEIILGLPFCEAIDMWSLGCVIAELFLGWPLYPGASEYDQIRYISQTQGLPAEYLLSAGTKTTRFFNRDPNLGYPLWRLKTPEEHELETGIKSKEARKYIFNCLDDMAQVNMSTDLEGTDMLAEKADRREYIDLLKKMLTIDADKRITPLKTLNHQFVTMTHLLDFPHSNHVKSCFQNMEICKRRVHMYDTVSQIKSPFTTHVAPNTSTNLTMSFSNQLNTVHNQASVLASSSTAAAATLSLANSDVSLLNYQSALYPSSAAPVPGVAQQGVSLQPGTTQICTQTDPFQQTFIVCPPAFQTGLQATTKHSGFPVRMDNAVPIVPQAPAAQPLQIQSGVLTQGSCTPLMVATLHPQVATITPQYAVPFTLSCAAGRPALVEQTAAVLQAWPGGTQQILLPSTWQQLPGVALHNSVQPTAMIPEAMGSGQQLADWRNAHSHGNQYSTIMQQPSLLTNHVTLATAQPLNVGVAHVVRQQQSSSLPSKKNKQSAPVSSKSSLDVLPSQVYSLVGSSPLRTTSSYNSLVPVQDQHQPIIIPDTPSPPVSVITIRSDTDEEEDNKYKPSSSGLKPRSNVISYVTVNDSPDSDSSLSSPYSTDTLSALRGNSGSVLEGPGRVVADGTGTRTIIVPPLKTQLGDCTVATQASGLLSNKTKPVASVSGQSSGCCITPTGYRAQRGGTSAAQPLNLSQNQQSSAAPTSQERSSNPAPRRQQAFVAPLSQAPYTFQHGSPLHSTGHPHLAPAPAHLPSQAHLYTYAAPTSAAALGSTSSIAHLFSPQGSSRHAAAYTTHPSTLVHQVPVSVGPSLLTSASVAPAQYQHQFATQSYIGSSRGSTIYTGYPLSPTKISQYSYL
Sequence of Dual specificity tyrosine-phosphorylation-regulated kinase 1B (Homo sapiens) (Q9Y463 whole entry, looked up): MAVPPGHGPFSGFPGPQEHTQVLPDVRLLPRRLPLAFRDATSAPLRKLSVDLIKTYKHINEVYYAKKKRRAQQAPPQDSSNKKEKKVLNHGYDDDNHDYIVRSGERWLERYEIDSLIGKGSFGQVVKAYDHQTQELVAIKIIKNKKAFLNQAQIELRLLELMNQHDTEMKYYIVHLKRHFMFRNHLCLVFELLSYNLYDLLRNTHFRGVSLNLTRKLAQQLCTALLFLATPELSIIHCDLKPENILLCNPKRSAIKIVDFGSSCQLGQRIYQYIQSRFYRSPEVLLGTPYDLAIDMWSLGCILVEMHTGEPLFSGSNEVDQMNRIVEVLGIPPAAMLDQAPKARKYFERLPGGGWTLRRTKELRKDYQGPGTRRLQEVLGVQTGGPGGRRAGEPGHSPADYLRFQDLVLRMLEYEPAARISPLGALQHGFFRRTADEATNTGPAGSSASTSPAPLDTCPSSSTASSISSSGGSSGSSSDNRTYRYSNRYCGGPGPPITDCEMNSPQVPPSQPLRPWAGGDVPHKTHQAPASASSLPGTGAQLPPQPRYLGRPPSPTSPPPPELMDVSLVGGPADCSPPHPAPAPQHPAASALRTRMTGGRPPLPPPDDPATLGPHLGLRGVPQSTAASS

`Cc1[nH]nc(C2CC2)c1-c1ccc2c(NC(=O)C3CC3)noc2c1`: the inhibition in data set [1] is 1%; in data set [2], 6.7%; in data set [3], 1.7%; in data set [4] it was 4.7%; in data set [5] it was 2.7%; in [6] it was -4%. In addition, the inhibition is -0.3% in data set [7]; 9.3% in [8]; 11% in data set [9]; 0.7% in [10]; 5.3% in data set [11].
As to `Cc1n[nH]c(C)c1-c1ccc2c(NC(=O)c3ccc(N4CCN(C)CC4)cc3)n[nH]c2c1`, the inhibition in data set [12] is 3%; in [13], 8%; in data set [14], 2.3%; in data set [15], 0.3%; in [16] it was 19.7%; in [17], 19.7%. Further, the inhibition in data set [18] is 2.7%; in data set [19], 4%; in data set [20] it was 13%; in data set [21] it was 12.7%; in data set [22], -10%; in data set [23], 0%. The inhibition amounted to 5.7% in [24]; 7% in [25]; 0.3% in [26]; 76% in data set [27]; 51.7% in [28]; 7% in [29].
`COC(=O)Nc1noc2cc(-c3c(-c4ccccn4)n[nH]c3C)ccc12` returned a distribution volume (Vd) in data set [30] of 0.91 L/kg. In [31], this compound registered a bioavailability of 100%.

In general, inhibition refers to the drop in the measured response relative to a control, in per cent. As a reminder, the Vd is the apparent volume that relates the amount in the body to the concentration in plasma or blood. For orientation: bioavailability means dose-corrected exposure relative to a reference, in per cent.
